Test [1] deals with alpha-smooth muscle actin (α-SMA). As to the kind of experiment: Inhibition of TGF-β induced expression of alpha-smooth muscle actin (α-SMA) in CFSC cells, western blot. Format: cell-based. The note with it: compound at 10 μM, TGF-β (10 ng/mL), 24 hours, decrease in band intensity vs TGF-β only. Summed up:
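Cells at 60–70% confluence in serum-free DMEM received compound at 10 μM plus TGF-β (10 ng/mL) for 24 h at 37 °C. NP-40 lysates were run on western blot for α-SMA and β-actin, with ECL bands quantified. % inhibition = decrease in band intensity versus TGF-β alone.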

Test [2] relates to CCl4-induced liver fibrosis in C57BL/6 mice. The experiment in a line: Antifibrotic activity in CCl4-induced liver fibrosis, Sirius red staining of liver samples. The format is in vivo. The note with it: C57/BL6 mice, oral once daily for 2 weeks; malotilate 60 mg/kg, A11 and B9 50 mg/kg. The protocol: CCl4-induced liver fibrosis was described previously. Henderson et al., Proc. Nat'l. Acad. Sci. U.S.A. 2006, 103, 5060-5; Henderson et al., Nat. Med. 2013, 19, 1617-24. Briefly, eight-week-old C57BL/6 mice were randomly divided into two groups: a control group and a CCl4 administered group. Liver fibrosis was induced by intraperitoneal administration of 25% CCl4 at 0.5 mL/kg body weight (diluted in corn oil) twice weekly for 6 weeks. Dosing was started during the last 2 weeks of CCl4 administration. Malotilate (Mal) as a reference and compounds A11, A23, and B9 were each freshly prepared by dissolving in PEG 400 and orally administered in a dosing volume of 10 mL/kg. The mice were stratified (n=6-8 per group) based on their body weights and dosed once daily for 2 weeks with a vehicle, malotilate (60 mg/kg), compound A11 (50 mg/kg), compound A23 (50 mg/kg), or compound B9 (50 mg/kg). Their body weights were monitored daily during the intervention period. At the terminal of treatment, the mice were sacrificed and their liver samples were processed as below.
The mice liver samples were all taken at the same position of each large lobe, and then post-fixed in a 10% buffered formaldehyde for 48 h. The fixed livers were embedded in paraffin for microtome slicing into 5-μm-thick sections. The tissue sections were mounted onto MS-coated glass slides, deparaffinized, and stained with picric acid-Sirius red. Stained sections were photographed using a microscope with a digital camera. Images were taken at a full resolution with a single image dimension set at 1,360×1,024 pixels.
Total RNA was extracted from the liver using an MOLPURE® TRIEASY™ Plus Total RNA Kit (Yeasen, Shanghai, China). Total RNA (5 μg) was reverse-transcribed using 1st strand cDNA Synthesis SuperMix for qPCR (gDNA digester plus) Kit (Yeasen, Shanghai, China). […]

We go through 13 molecules from patent US12649712B2, “Indene compounds, pharmaceutical compositions thereof, and their therapeutic applications” (NucMito Pharmaceuticals Co. Ltd., priority 2020, dated 2026).

In turn, `CC1=C(CC(=O)O)c2cc(F)ccc2/C1=C\c1ccc(C(C)C)cc1` [Compound B9, (Z)-2-(5-fluoro-2-methyl-1-(4-isopropylbenzylidene)-1H-inden-3-yl)acetic acid] had an inhibition at 10 µM in test [1] greater than 90%. In addition, the “Sirius red pathological staining of liver samples: effect on fibrosis induced by CCl4” value (“Sirius red pathological staining” below) in test [2] was “reversed the fibrosis induced by CCl4”. Consider `CC1=C(CC(=O)O)c2cc(F)ccc2/C1=C\c1ccc(Oc2ccc(F)cc2)cc1` [Compound A11, 2-[(1Z)-5-Fluoro-1-{[4-(4-fluorophenoxy)phenyl]methylidene}-2-methyl-1H-inden-3-yl]acetic acid], for which, in test [1], the inhibition at 10 µM fell in the range of 80 to 90%. Also, in test [2], the “Sirius red pathological staining” value is “reversed the fibrosis induced by CCl4”.

Turning to `CC1=C(CC(=O)O)c2cc(F)cc(F)c2/C1=C/c1ccc(Oc2ccc(F)cc2)cc1` [Compound E4, 2-[(1E)-5,7-Difluoro-2-methyl-1-({4-[4-fluorophenoxy]phenyl}methylidene)-1H-inden-3-yl]acetic acid], the inhibition at 10 µM in test [1] is greater than 90%. On the same count and under the same terms, the value for `CC1=C(CC(N)=O)c2cc(F)ccc2/C1=C\c1ccc(Oc2ccc(F)cc2)cc1` [Compound A25, 2-[(1Z)-5-Fluoro-1-{[4-(4-fluorophenoxy)phenyl]methylidene}-2-methyl-1H-inden-3-yl]acetamide] was 70 to 80%. `CC(C)OC(=O)C(C(=O)OC(C)C)=C1SC=CS1` [Mal, malotilate, reference compound]: the “Sirius red pathological staining” value in test [2] is reported as “reversed the fibrosis induced by CCl4”. `CC1=C(CC(=O)O)c2cc(F)ccc2/C1=C\c1ccc(C(C)(C)C)cc1` [Compound B10, (Z)-2-(5-fluoro-2-methyl-1-(4-t-butylbenzylidene)-1H-inden-3-yl)acetic acid]: the inhibition at 10 µM in test [1] lay within 70 to 80%.

For `CC1=C(CC(=O)O)c2cc(F)cc(F)c2/C1=C\c1ccc(Oc2ccc(F)cc2)cc1` [Compound D15, 2-[(1Z)-5,7-Difluoro-2-methyl-1-({4-[4-fluorophenoxy]phenyl}methylidene)-1H-inden-3-yl]acetic acid], the inhibition at 10 µM in test [1] is greater than 90%. Still for that read-out and setting: the value for `CC1=C(CC(=O)NO)c2cc(F)ccc2/C1=C\c1ccc(N(Cc2ccccc2)c2ccc(F)cc2)cc1` [Compound A38, 2-[(1Z)-1-({4-[Benzyl(4-fluorophenyl)amino]phenyl}methylidene)-5-fluoro-2-methyl-1H-inden-3-yl]-N-hydroxyacetamide] was 70 to 80%. Still for that read-out and setting: the value for `CC1=C(CC(=O)O)c2cc(F)ccc2/C1=C\c1ccc(Oc2ccc(F)c(F)c2)cc1` [Compound D5, 2-[(1Z)-5-Fluoro-2-methyl-1-({4-[3,4-difluorophenoxy]phenyl}methylidene)-1H-inden-3-yl]acetic acid] was greater than 90%; that for `CC1=C(CC(=O)O)c2cc(F)ccc2/C1=C\c1ccc(Oc2ccc(F)nc2)cc1` [Compound A20, 2-[(1Z)-5-Fluoro-1-({4-[(6-fluoropyridin-3-yl)oxy]phenyl}methylidene)-2-methyl-1H-inden-3-yl]acetic acid] was less than 50%. The same measure, in the same setting: the same measure for `CC1=C(CC(=O)O)c2cc(F)ccc2/C1=C\c1ccc(N(Cc2ccccc2)c2ccc(F)cc2)cc1` [Compound A30, 2-[(1Z)-1-({4-[Benzyl(4-fluorophenyl)amino]phenyl}methylidene)-5-fluoro-2-methyl-1H-inden-3-yl]acetic acid]: 70 to 80%; for `CC1=C(CC(=O)O)c2cc(F)ccc2/C1=C\c1ccc(Oc2ccc(F)cc2)cc1C` [Compound D14, 2-[(1Z)-1-{[2-Methyl-4-(4-fluorophenoxy)phenyl]methylidene}-5-fluoro-2-methyl-1H-inden-3-yl]acetic acid]: greater than 90%. In test [1], `C=C(C)c1ccc(/C=C2/C(C)=C(CC(=O)O)c3cc(F)ccc32)cc1` [Compound B39, 2-[(1Z)-5-fluoro-2-methyl-1-{[4-(prop-1-en-2-yl)phenyl]methylidene}-1H-inden-3-yl]acetic acid] showed an inhibition at 10 µM of less than 50%.

As a reminder, the inhibition is the change of the read-out against control, counted positive when it falls. Low readings indicate a weak effect, high ones a strong effect.
